This is an account of results in publication PMC11676667, “Pharmacokinetics of Oral Cannabinoid Δ8-Tetrahydrocannabivarin and Its Main Metabolites in Healthy Participants” (Pharmaceuticals, 2024).

SMILES strings stand for the structures.

This data set can be described thus: Plasma pharmacokinetics after single oral dose of Δ8-THCV in MCT oil (LC-MS/MS, non-compartmental analysis). It counts as in vivo, human. The conditions noted are these: of 504 plasma samples from 15 participants after oral Δ8-THCV. How it is done: The study was a two-phase, dose-ranging, placebo-controlled trial in 21 healthy participants to assess the safety, tolerability, PK, and PD of an oral formulation of Δ8-THCV. A detailed description of the study was published elsewhere. The study product was a medium-chain triglyceride (MCT) oil oral formulation of Δ8-THCV at a concentration of 50 mg/mL. […] MCT oil was used as placebo.
Twenty-one participants were enrolled in the clinical study and plasma samples from 15 participants were sent to our laboratory for pharmacokinetic evaluation. Of these, 3 participants were enrolled in Phase 1, an unblinded, placebo-controlled, single ascending dose design and 12 were enrolled in Phase 2, a double-blind, randomized, placebo-controlled, within-participant crossover design. At each study session, participants received one of the following oral doses: placebo, 12.5 mg, 25 mg, 50 mg, 100 mg, and 200 mg of the aforementioned Δ8-THCV formulation in MCT. Study visits were separated by a washout period of a minimum of one week and maximum of 28 days. Participants entered the research facility the night before the session and received the study product in the morning after a standardized high-fat, high-calorie breakfast. PK blood samples included in this analysis were collected prior to dosing and 0.5, 1, 2, 4, 6, and 8 h after dose. Immediately following collection into K2EDTA tubes, blood samples were placed on wet ice, centrifuged, and plasma was immediately frozen at −80 °C until shipment to the bioanalytical laboratory (iC42 Clinical Research and Development, University of Colorado, Aurora, CO, USA) on dry ice.
Plasma samples were analyzed using a validated high-performance liquid chromatography–tandem mass spectrometry (LC-MS/MS) assay. The assay included Δ8-THCV and its main metabolites 11-OH-Δ8-THCV and Δ8-THCV-COOH, Δ9-THCV and its main metabolite Δ9-THCV-COOH, and Δ9-THC and Δ8-THC as well as their main metabolites (Figure 3). The complete list of analyzed compounds and a summary of the key performance parameters of the assay are presented in Appendix A and Table A1 and Table A2. […] For the PK analysis, concentrations below the lower limit of quantification were set to 0 ng/mL. PK parameters were calculated using non-compartmental analysis (Phoenix WinNonlin version 8.4., Certara, Princeton, NJ, USA). Statistical analysis was carried out using GraphPad Prism (version 10, Boston, MA, USA).

As to `CCCCCc1cc(O)c2c(c1)OC(C)(C)[C@@H]1CC=C(C)CC21` (some centres unmarked) [Δ8-THC, Δ8-tetrahydrocannabinol, reference compound], the “number of positive plasma samples” value is “No positive samples”.
On to `CCCCCc1cc(O)c2c(c1)OC(C)(C)[C@@H]1CCC(C)=CC21` (some centres unmarked) [Δ9-THC, Δ9-tetrahydrocannabinol, reference compound], for which the “number of positive plasma samples” value is “No positive samples”.
